In patent US20070213291A1, “Therapeutically useful synthetic oligonucleotides” (priority 1999, published 2007):

What was measured:
Assay type in all cases: cell-based
[1] = system: Jurkat human leukemia T cells; assay: Cell cycle stage in Jurkat cells (propidium iodide flow cytometry); conditions: 24 h
Method: Cell cycle stage was determined using a […]™ PLUS DNA commercial kit (Becton Dickinson). Briefly, nuclei from cells were obtained by dissolving the cell membrane in a nonionic detergent, eliminating the cell cytoskeleton and nuclear proteins with trypsin, digesting the cellular RNA with RNase and stabilizing the nuclear chromatin with spermine. Propidium iodide was added to the cell nuclei and their fluorescence was analyzed in a flow cytometer equipped with electronic doublet discrimination capability (FACSCalibur, Becton Dickinson, San Jose, Calif.). Accumulation of cells in G0/G1, early S (SE), mid S (SM), late S (SL) or G2/M phases of the cell cycle was analyzed using MODFIT LT software (Verity Software House Inc., Topsham, Mass.).
Exponentially growing Jurkat human leukemia T cells (Table 28) and MCF-7 human breast cancer cells (5×10^5 cells/ml) (Table 29) were incubated for 24 h with 2, 6, 15, 18, 27 and 45 base sequences containing A, C, G and T. The cells were collected and centrifuged and cell cycle stage was determined.
Jurkat human cell leukemia T cells (1×10^6 cells/ml) were incubated for 24 h with 6 base GT SEQ ID NO:25, conplementary 6 base AC SEQ ID NO:79 and 6 base GT SEQ ID NO:25+6 base AC SEQ ID NO:79. GT SEQ ID NO:25 and AC SEQ ID NO:79 were hybridized by mixing the oligonucleotides (1:1) and heating for 10 minutes at 65° C. As controls, GT SEQ ID NO:25 and AC SEQ ID NO:79 were heated for 10 minutes at 65° C. (Table 30).

[2] = system: Jurkat human leukemia T cells; assay: NuMA release into supernatant (ELISA); conditions: for % NuMA released (treated vs untreated cells): 50 μM sequence; for % NUMA RELEASED: Jurkat 1×10^6/ml
Method: (§1) The redistribution of phosphatidylserine in the plasma membrane during apoptosis was measured by flow cytometry using FITC-conjugated annexin V (BD Pharmingen, San Diego, Calif.). NuMA release into the supernatant was determined using a commercial ELISA kit (Oncogen/Calbiochem, Cambridge, Mass.).
Jurkat human leukemia T cells were incubated with 50 μM of 3, 4, 5, 6 and 7 GT base sequences, a 5 base ACGT sequence, 6 base AG, GG, AGT and CGT sequences and a 7 base GG sequence.
Jurkat human leukemia T cells (1×10^6/ml) were incubated with 6 and 27 GT base sequences (Table 32). NuMA was determined as in Example 23.
Jurkat human cell leukemia T cells were incubated for 24 h with 6 base GT SEQ ID NO:25, complementary 6 base AC SEQ ID NO:79, and 6 base GT SEQ ID NO:25+6 base AC SEQ ID NO:79. GT SEQ ID NO:25 and AC SEQ ID NO:79 were hybridized by mixing the sequences (1:1) and heating for 10 minutes at 65° C. As controls, GT SEQ ID NO:25 and AC SEQ ID NO:79 were heated for 10 minutes at 65° C. (Table 33). Apoptosis was evaluated as in Example 23.

[3] = system: Jurkat human leukemia T cells; assay: Apoptosis by phosphatidylserine/annexin V-FITC flow cytometry; conditions: 50 μM sequence
Method: as §1
Jurkat human leukemia T cells were incubated with 50 μM of 3, 4, 5, 6 and 7 GT base sequences, a 5 base ACGT sequence, 6 base AG, GG, AGT and CGT sequences and a 7 base GG sequence. […]
Jurkat human leukemia T cells were incubated with GT-rich or AC-rich sequences derived from the murA gene of Mycobacterium phlei (GenBank: Accession Number X99776). Inhibition of proliferation was measured by the reduction of MTT as in Example 3, cell cycle arrest was detected by flow cytometry using propidium iodide as in Example 21 and apoptosis was evaluated by flow cytometry using annexin-V-FITC as in Example 23.

[4] = system: Jurkat human leukemia T cells; assay: Inhibition of Jurkat human leukemia T cell proliferation (MTT reduction); conditions: 100 μg/ml sequence, 48 h, 2.5×10^5 cells/ml
Method: (§2) Cells were seeded in 6 (1 ml/well), 24 (0.5 ml/well) or 96 (0.1 ml/well) well flat-bottom microplates and were maintained at 37° C. in a 5% CO2 atmosphere. Unless stated otherwise, 2.5×10^5 cells/ml were incubated with 0 μg/ml (control) and 100 μg/ml (treated) of 2 to 45 base sequences containing A, C, G and T for 48 h.
MTT was measured at a wavelength of 570 nm using a multiplate spectrophotometer reader (ELX800, Bio-TEK Instruments Inc., Winooski, Vt.).
Jurkat human leukemia T cells are an atypical multi-drug resistant human suspension tumor cell model.

[5] = system: MCF-7 human breast cancer cells; assay: Inhibition of MCF-7 cell proliferation (MTT); conditions: 100 μg/ml, 48 h, 5×10^5 cells/ml
Method: as §2
Cell proliferation was measured using dimethylthiazol-diphenyl-tetrazolium (MTT) reduction (Mosman et al. J. Immunol. Methods 65:55, 1983). MTT was measured at a wavelength of 570 nm using a multiplate spectrophotometer reader (ELX800, Bio-TEK Instruments Inc., Winooski, Vt.).
MCF-7 human breast cancer cells are a caspase 3 negative, estrogen-dependent human solid tumor model. MCF-7 cells (5×10^5 cells/ml) were incubated with 3 and 6 base GT sequences (Table 7).

[6] = system: THP-1 human acute monocytic leukemia cells; assay: Cytokine production by THP-1 cells (ELISA); conditions: THP-1, 1×10^6 cells, 100 μg/ml, 48 h; p70 complex and free p40
Method: Unless stated otherwise, 1×10^6 cells were incubated with 100 μg/ml of each of the sequences tested for 48 h at 37° C. in 5% CO2. Production of cytokines IL-6, IL-10, IL-12, IL-1beta and TNF-alpha was determined in pg/ml in 100 μl of culture supernatant using the appropriate commercial ELISA (BioSource, Camarillo Calif.). The IL-12 ELISA measures both IL-12 p70 complex and free p40 subunit. Results are expressed as the “fold” (×) increase in cytokine production by treated cells compared to control cells.
THP-1 human acute monocytic leukemia cells were incubated with 2, 3, 6, 9, 12, 14, 15 and 18 base GT sequences and production of the cyotkine IL-6 was determined (Table 35).
THP-1 human acute monocytic leukemia cells were incubated with 6 base GT, AG, CG, GG, AGT and CGT sequences and production of the cytokines IL-12 and IL-6 was determined (Table 36).
THP-1 human acute monocytic leukemia cells were incubated with 6 base GT sequences, having either an oxygen (phosphodiester) or a sulfur (phosphorothioate) as the nonbridging atom on the phosphate groups and production of the cytokine IL-12 was determined (Table 39).
THP-1 human acute monocytic leukemia cells were incubated with 6 base GT SEQ ID NO:25, having either an oxygen (phosphodiester) or a sulfur (phosphorothioate) as the nonbridging atom on the phosphate groups and production of the cytokine IL-12 was determined (Table 40).

[7] = Jurkat 1×10^6 cells/ml, sequences heated 10 minutes at 65° C.

Substance | % of cells in apoptosis (positive for PS/A-V staining) [3] | % NuMA released (treated vs untreated cells) ([2]; Jurkat) | % INHIBITION of Jurkat human leukemia T cell proliferation [4] | % INHIBITION of MCF-7 human breast cancer cell proliferation [5] | ↑ IL-12 (fold increase treated vs control cells) [6] | also measured
CC(AC)1CC (DNA CCACCC; unmodified DNA) [SEQ ID NO:79] |  |  |  |  |  | % cells in phase: G0/G1 [1, 7]: 36.0%; % cells in phase: G2/M [1, 7]: 30.5%; % cells in phase: SE [1, 7]: 10.4%; % cells in phase: SL [1, 7]: 9.7%; % cells in phase: SM [1, 7]: 13.4%; Arrest (cell cycle) [1, 7]: had no effect on the cell cycle and None; % NuMA released (untreated vs treated cells) ([2]; Jurkat, 24 h, sequences heated 10 minutes at 65° C.): 9%
CG(GT)1A (DNA CGGTA; unmodified DNA) [SEQ ID NO:80] | 6% | 9% |  |  |  | 
GG(GG)1GGG (DNA GGGTGGG; unmodified DNA) | 12% | 26% |  |  |  | 
GG(GT)1 | 21% | 64% |  |  |  | 
GGGGGGGTGGGGGGGTGGGGGGGTGGG (unmodified DNA) [SEQ ID NO:4] |  |  | 11% |  |  | % of cells in phase: G0/G1 ([1]; Jurkat, 100 μg/ml): 36.5%; % of cells in phase: G2/M ([1]; Jurkat, 100 μg/ml): 22.3%; % of cells in phase: SE ([1]; Jurkat, 100 μg/ml): 16.3%; % of cells in phase: SL ([1]; Jurkat, 100 μg/ml): 11.1%; % of cells in phase: SM ([1]; Jurkat, 100 μg/ml): 13.8%; Arrest (cell cycle) ([1]; Jurkat, 100 μg/ml): None; % NUMA RELEASED [2]: 90%
GGGGGTGGGGGTGGGGGTGGGGGTGGG (unmodified DNA) [SEQ ID NO:3] |  |  | 24% |  |  | % of cells in phase: G0/G1 ([1]; Jurkat, 100 μg/ml): 40.5%; % of cells in phase: G2/M ([1]; Jurkat, 100 μg/ml): 23.6%; % of cells in phase: SE ([1]; Jurkat, 100 μg/ml): 13.3%; % of cells in phase: SL ([1]; Jurkat, 100 μg/ml): 9.7%; % of cells in phase: SM ([1]; Jurkat, 100 μg/ml): 12.9%; Arrest (cell cycle) ([1]; Jurkat, 100 μg/ml): None; % NUMA RELEASED [2]: 139%
GGGGTGG (unmodified DNA) [SEQ ID NO:62] | 30% | 123% | 41% |  |  | 
GGGTG (unmodified DNA) [SEQ ID NO:61] | 25% | 92% | 50% |  |  | 
GGGTGGGTGGGTGGGTGGGTGGGTGGG [SEQ ID NO:2] |  |  | 23% |  |  | % of cells in phase: G0/G1 ([1]; Jurkat, 100 μg/ml): 34.3%; % of cells in phase: G2/M ([1]; Jurkat, 100 μg/ml): 26.4%; % of cells in phase: SE ([1]; Jurkat, 100 μg/ml): 15.5%; % of cells in phase: SL ([1]; Jurkat, 100 μg/ml): 10.3%; % of cells in phase: SM ([1]; Jurkat, 100 μg/ml): 13.6%; Arrest (cell cycle) ([1]; Jurkat, 100 μg/ml): None; % NUMA RELEASED [2]: 49%
GGTG (unmodified DNA) [SEQ ID NO:56] | 24% | 112% | 54% |  |  | 
GGTGG (unmodified DNA) [SEQ ID NO:60] | 25% | 120% | 50% |  |  | 
GTGG (unmodified DNA) [SEQ ID NO:52] | 24% | 60% | 52% |  |  | 
GoGoGoTsGoGo |  |  | 12% | 0% | 0.2x | 
GoGoGsToGoGo |  |  | 17% | 12% | 0.1 x | 
GoGoGsTsGoGo |  |  | 13% | 43% | 0.5x | 
GoGsGoToGsGo |  |  | 11% | 13% | −0.1x | 
GsGoGoToGoGs |  |  | 16% | 12% | −0.1x | 
GsGsGoToGsGs |  |  | −13% | −3% | 0 x | 
